# Experimental data taken from patent US10539566B2, “Use of markers including filamin A in the diagnosis and treatment of prostate cancer” (Berg LLC, priority 2014, dated 2020).
# What was measured:
# Format in all cases: cell-based, human
# [1] = system: LnCAP, DU145, and PC-3 cells; assay: Quantitative RT-PCR of FLNA, FLNB and KRT19 expression after prostate-relevant stimuli; conditions: 24 h, DU145, PC-3 cells
# Experimental: Specifically, mRNA was prepared from LnCAP, DU145, and PC-3 cells exposed to hypoxia (1% oxygen; A), TNFα (10 ng/mL; B), or R1881 (1 nM; C) for 24 h. Expression of FLNA, FLNB, and KRT19 was assessed by quantitative RT-PCR, normalized to TBP, and compared to PSA. Values represent means+SEM, N=3. * p<0.05 compared to normoxia/control.
# [2] = system: LnCAP cell line and PC3 cell line; assay: Wet lab assays measuring mitochondrial ROS, ATP and caspase 3 activation; conditions: LnCAP and PC3 cells treated with ubidecarenone
# PC3 cells = assay: Causal protein networks from 2D LC-MS proteomics of prostate cancer cells treated with ubidecarenone; conditions: upon treatment with ubidecarenone
# Source text: An interrogative systems biology based discovery platform (i.e., Interrogative Platform Technology or a.k.a. Interrogative Biology™) disclosed in WO2012119129 (incorporated herein by reference), and shown schematically in FIG. 1, provides new mechanistic insights into understanding mitochondrial role in behavior of prostate cancer cells. The discovery platform involves discovery across a hierarchy of systems including in vitro human cell based models and human serum samples from prostate cancer patients and downstream data integration and mathematical modeling employing an Artificial Intelligence (AI) based informatic module. For cellular models, androgen sensitive LnCAP cell line and metastatic, androgen refractory PC3 cell line were treated with ubidecarenone (coenzyme Q10) in order to engage the mitochondrial machinery. Proteomic signatures were captured using a 2D LC-MS orbitrap technology. Total protein signatures were input to an AI based informatics module to generate causal protein networks (FIG. 2).
# The keratin 8/15 association was lost upon treatment with ubidecarenone, and a direct association of keratins 7 and 15 was established (FIG. 3).
compound,measurement,setting,value
C[C@]1(O)CC[C@H]2[C@@H]3CCC4=CC(=O)CCC4=C3C=C[C@@]21C [R1881],"global regulation of FLNA, FLNB, and KRT19 expression (mRNA, normalized to TBP)",[1]; R1881 1 nM,remained unaltered
COC1=C(OC)C(=O)C(C/C=C(\C)CC/C=C(\C)CC/C=C(\C)CC/C=C(\C)CC/C=C(\C)CC/C=C(\C)CC/C=C(\C)CC/C=C(\C)CC/C=C(\C)CCC=C(C)C)=C(C)C1=O [ubidecarenone],"intracellular levels of mitochondrial ROS, ATP and caspase 3 activation",[2],confirmed changes in intracellular levels
same,direct association of keratins 7 and 15 in causal protein maps,PC3 cells,established
same,keratin 8/15 association in causal protein maps,PC3 cells,lost
TNFα,"global regulation of FLNA, FLNB, and KRT19 expression (mRNA, normalized to TBP)",[1]; TNFα 10 ng/mL,remained unaltered
